Data set [1] addresses Hepatocyte growth factor receptor (Homo sapiens, UniProt P08581). Description: Inhibition of c-Met (unknown origin).
Data set [2] can be described thus: Cytotoxicity against HUVEC assessed as inhibition of VEGF-independent growth after 72 hrs by CellTiter-Glo method. The format is cell-based. Particulars: human, HUVEC cells. A general note: Cellular ATP, detected with luciferase, serves as a proxy for viable cell number.
The subject of data set [3] is HUVEC. Description: Antiangiogenic activity in HUVEC assessed as inhibition of HGF induced cell proliferation after 3 days by WST-1 assay. Type of data set: functional, cell-based. Particulars: Homo sapiens, 72 h.
Data set [4] can be described thus: Cytotoxicity against human SNU5 cells assessed as inhibition of tumour growth after 3 days by WST-8 assay. Type of data set: functional, cell-based. To be noted: SNU-5, 72 h.
A short description of data set [5]: Cytotoxicity against human EBC1 cells assessed as inhibition of tumour growth after 3 days by WST-8 assay. Type of data set: functional, cell-based. Particulars: EBC-1, 72 h. In general terms: Tetrazolium assays rely on reduction of a dye to a coloured formazan, in cell work by metabolically active cells.
Data set [6] has as its target Vascular endothelial growth factor receptor 2 (Homo sapiens, UniProt P35968). In words: Inhibition of VEGFR-2 autophosphorylation in HUVEC after 1 hr by Western blot analysis. Type of data set: cell-based.
The test system of data set [7] is HUVEC. In words: Antiangiogenic activity in HUVEC assessed as inhibition of VEGF induced cell proliferation after 3 days by WST-1 assay. Type of data set: functional, cell-based. Particulars: Homo sapiens, 72 h.
Data set [8] deals with HUVEC. In words: Antiangiogenic activity in HUVEC assessed as inhibition of bFGF induced cell proliferation after 3 days by WST-1 assay. Type of data set: functional, cell-based. Particulars: Homo sapiens, 72 h.
A short description of data set [9]: Cytotoxicity against human Hs 746T cells assessed as inhibition of tumour growth after 3 days by WST-8 assay. Type of data set: functional, cell-based. Particulars: Hs746T, 72 h.
The nature of data set [10]: Cytotoxicity against human MKN45 cells assessed as inhibition of tumour growth after 3 days by WST-8 assay. The format is functional, cell-based. To be noted: MKN-45, 72 h.
A short description of data set [11]: Antitumor activity against mouse B16F10 cells implanted in naive mouse assessed as tumour growth inhibition at 100 mg/kg, po qd by Zeiss stereoscopic analysis relative to control. The format is functional. To be noted: B16-F10, po, read-out: TGI.
Data set [12] in a line: Antitumor activity against mouse B16F10 cells implanted in naive mouse assessed as reduction in metastatic tumor burden at 30 mg/kg, po qd by Zeiss stereoscopic analysis relative to control. The format is functional, B16-F10. Further details: scale not given: the % may be the effect or the level left.
Data set [13] is described as follows: Antitumor activity against mouse B16F10 cells implanted in naive mouse assessed as reduction in metastatic tumor burden at 100 mg/kg, po qd by Zeiss stereoscopic analysis relative to control. Type of data set: functional, B16-F10. Further details: scale not given: the % may be the effect or the level left.
Data set [14] can be described thus: Antitumor activity against mouse B16F10 cells implanted in naive mouse assessed as reduction in lung surface tumor burden at 30 mg/kg, po qd by Zeiss stereoscopic analysis relative to control. The format is functional, B16-F10. Details: scale not given: the % may be the effect or the level left.
A short description of data set [15]: Antitumor activity against mouse B16F10 cells implanted in naive mouse assessed as reduction in lung surface tumor burden at 100 mg/kg, po qd by Zeiss stereoscopic analysis relative to control. Type of data set: functional, B16-F10. Further details: scale not given: the % may be the effect or the level left.
Data set [16] is described as follows: Antitumor activity against mouse B16F10 cells implanted in naive mouse assessed as tumour growth inhibition at 30 mg/kg, po qd by Zeiss stereoscopic analysis relative to control. The format is functional. Particulars: B16-F10, po, read-out: TGI.
Data set [17] concerns the target T1, Receptor-type tyrosine-protein kinase FLT3 (Homo sapiens, UniProt P36888).
T1 sequence (P36888 whole entry): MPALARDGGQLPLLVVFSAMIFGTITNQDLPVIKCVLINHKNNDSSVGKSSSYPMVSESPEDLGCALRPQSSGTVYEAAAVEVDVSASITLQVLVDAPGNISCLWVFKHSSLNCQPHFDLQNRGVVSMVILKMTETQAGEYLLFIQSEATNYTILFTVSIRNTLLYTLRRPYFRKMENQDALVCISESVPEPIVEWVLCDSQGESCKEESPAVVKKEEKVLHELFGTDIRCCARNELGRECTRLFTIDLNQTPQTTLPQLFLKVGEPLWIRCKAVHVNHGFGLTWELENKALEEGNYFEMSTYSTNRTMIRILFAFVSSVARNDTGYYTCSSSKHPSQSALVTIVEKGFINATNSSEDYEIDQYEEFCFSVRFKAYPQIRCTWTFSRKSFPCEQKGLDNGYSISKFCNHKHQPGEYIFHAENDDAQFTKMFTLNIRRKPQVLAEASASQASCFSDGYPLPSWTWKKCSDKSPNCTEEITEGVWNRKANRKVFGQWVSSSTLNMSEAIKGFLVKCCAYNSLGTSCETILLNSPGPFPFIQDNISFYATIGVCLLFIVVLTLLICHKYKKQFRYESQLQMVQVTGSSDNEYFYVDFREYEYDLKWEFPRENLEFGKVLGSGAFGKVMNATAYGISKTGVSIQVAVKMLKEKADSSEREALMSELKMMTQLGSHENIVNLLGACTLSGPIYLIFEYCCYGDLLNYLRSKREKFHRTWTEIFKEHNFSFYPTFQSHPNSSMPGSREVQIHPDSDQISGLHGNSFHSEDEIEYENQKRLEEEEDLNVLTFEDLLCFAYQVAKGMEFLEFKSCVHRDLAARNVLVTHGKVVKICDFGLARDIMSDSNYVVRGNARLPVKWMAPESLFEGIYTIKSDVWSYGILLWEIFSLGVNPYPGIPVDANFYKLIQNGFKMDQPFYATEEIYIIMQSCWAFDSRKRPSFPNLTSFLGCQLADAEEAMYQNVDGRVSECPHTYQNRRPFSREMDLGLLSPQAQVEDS
Description: Inhibition of Flt-3 (unknown origin).

The target in data set [18] is T2, Tyrosine-protein kinase receptor UFO (Homo sapiens, UniProt P30530).
T2 sequence (P30530 whole entry): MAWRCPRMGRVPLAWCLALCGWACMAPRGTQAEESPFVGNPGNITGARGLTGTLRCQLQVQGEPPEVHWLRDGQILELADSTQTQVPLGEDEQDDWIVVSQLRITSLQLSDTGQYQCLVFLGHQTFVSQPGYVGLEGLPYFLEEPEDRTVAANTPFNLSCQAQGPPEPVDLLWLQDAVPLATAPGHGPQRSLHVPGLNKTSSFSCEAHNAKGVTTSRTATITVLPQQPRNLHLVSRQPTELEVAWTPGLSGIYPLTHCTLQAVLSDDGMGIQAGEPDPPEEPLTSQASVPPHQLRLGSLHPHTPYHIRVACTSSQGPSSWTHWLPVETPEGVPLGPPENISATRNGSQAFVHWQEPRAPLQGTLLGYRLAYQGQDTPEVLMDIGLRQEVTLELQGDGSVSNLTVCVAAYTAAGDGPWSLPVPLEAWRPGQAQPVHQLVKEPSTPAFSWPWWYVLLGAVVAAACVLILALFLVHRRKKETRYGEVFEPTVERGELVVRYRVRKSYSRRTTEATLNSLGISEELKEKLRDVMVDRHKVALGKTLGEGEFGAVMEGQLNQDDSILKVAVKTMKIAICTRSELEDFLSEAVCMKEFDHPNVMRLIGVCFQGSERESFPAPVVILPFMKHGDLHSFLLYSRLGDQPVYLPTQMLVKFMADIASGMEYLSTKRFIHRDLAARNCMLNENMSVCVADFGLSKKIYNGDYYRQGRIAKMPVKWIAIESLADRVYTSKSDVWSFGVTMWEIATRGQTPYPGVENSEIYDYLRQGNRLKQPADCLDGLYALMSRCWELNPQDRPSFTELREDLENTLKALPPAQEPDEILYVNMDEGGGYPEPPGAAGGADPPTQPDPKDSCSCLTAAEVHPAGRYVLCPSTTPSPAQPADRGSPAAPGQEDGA
Description: Inhibition of Axl (unknown origin).

In data set [19] the target is Macrophage-stimulating protein receptor (Homo sapiens, UniProt Q04912). Description: Inhibition of Ron (unknown origin).
The target in data set [20] is Vascular endothelial growth factor receptor 1 (Homo sapiens, UniProt P17948). In words: Inhibition of VEGFR-1 (unknown origin) by AlphaScreen assay. On the technique in general: Bead proximity is the source of the signal in Alpha formats.
The target in data set [21] is Vascular endothelial growth factor receptor 3 (Homo sapiens, UniProt P35916). In words: Inhibition of VEGFR-3 (unknown origin) by AlphaScreen assay.

This is an account of results in ChEMBL document CHEMBL3763130, “Recent advances in the development of dual VEGFR and c-Met small molecule inhibitors as anticancer drugs” (Eur J Med Chem, 2016).

Chain of Hepatocyte growth factor receptor (P08581 whole entry): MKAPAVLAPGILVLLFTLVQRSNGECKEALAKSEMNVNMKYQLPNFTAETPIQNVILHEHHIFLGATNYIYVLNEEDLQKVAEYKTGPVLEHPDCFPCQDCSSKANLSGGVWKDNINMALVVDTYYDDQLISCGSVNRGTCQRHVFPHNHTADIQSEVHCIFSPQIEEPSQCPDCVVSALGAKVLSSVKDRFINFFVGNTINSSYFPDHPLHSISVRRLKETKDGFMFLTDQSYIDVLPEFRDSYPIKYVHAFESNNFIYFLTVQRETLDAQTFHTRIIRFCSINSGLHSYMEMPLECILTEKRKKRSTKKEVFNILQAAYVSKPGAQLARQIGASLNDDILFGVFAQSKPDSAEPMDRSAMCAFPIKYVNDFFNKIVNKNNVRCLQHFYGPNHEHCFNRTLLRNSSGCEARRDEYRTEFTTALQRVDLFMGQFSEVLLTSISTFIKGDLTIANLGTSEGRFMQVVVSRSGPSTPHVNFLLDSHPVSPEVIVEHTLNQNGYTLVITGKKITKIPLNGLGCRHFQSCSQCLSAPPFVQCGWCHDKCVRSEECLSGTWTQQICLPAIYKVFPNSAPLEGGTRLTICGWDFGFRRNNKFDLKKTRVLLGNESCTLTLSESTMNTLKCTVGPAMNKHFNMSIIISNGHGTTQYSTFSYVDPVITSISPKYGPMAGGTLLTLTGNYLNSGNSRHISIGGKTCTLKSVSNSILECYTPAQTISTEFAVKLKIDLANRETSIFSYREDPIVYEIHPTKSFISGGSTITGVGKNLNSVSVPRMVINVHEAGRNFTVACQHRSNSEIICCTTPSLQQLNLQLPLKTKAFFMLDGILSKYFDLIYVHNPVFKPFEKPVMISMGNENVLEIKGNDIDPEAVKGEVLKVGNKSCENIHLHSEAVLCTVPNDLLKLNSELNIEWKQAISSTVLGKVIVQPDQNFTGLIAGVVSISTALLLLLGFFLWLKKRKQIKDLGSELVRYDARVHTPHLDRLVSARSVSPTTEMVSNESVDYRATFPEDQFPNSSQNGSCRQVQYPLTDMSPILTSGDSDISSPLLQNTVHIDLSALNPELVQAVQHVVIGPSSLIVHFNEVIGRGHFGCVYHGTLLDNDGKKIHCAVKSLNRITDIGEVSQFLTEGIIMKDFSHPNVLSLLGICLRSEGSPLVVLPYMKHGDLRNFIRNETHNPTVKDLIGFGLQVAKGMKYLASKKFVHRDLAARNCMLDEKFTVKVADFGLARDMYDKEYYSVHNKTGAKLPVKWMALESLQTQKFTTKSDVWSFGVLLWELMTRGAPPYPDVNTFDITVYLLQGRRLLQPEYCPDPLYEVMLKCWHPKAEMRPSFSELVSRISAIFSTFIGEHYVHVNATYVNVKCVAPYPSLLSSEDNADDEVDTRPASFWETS
Chain of Vascular endothelial growth factor receptor 1 (P17948 whole entry): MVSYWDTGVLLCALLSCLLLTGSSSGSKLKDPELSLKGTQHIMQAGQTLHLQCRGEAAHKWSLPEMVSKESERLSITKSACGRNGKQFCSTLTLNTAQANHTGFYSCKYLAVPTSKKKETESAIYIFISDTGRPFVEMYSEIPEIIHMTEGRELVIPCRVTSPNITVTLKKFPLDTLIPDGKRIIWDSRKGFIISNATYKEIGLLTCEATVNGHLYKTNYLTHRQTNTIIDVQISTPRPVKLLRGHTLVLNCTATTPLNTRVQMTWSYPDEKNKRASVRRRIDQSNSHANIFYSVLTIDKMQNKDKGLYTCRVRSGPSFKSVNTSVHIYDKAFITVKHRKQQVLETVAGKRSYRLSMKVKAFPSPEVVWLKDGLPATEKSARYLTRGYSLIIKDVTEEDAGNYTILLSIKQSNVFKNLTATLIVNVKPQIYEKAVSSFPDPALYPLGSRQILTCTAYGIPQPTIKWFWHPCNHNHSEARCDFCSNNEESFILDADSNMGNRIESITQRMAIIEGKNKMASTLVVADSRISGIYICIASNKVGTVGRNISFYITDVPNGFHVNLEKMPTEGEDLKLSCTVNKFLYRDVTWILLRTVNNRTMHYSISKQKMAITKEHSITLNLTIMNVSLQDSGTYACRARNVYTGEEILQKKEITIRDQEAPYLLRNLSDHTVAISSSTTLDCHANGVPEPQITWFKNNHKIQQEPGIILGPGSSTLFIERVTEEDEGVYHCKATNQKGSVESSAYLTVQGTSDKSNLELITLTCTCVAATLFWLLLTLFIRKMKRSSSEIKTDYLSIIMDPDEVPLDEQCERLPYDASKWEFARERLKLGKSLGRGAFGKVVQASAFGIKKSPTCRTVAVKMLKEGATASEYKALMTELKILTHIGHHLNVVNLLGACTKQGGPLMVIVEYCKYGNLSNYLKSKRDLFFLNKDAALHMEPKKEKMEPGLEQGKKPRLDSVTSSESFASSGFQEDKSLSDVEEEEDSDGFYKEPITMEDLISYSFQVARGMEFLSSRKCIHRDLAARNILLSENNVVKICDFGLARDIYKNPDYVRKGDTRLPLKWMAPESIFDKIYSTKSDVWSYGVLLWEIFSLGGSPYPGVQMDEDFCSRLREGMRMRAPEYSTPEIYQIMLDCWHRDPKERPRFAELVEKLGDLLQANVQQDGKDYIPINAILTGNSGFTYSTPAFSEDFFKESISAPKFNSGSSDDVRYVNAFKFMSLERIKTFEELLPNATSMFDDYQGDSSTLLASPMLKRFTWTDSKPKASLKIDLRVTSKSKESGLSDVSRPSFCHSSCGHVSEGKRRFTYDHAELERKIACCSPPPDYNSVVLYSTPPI
Chain of Macrophage-stimulating protein receptor (Q04912 25-304 limits assumed): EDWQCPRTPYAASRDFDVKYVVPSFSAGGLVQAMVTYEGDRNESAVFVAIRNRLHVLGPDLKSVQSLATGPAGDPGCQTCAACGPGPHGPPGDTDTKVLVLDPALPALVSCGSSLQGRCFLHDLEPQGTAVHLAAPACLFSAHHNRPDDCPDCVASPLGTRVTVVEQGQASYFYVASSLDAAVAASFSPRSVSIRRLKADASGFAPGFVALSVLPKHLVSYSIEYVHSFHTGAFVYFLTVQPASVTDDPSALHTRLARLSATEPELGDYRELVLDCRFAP
Chain of Macrophage-stimulating protein receptor (Q04912 310-1400 limits assumed): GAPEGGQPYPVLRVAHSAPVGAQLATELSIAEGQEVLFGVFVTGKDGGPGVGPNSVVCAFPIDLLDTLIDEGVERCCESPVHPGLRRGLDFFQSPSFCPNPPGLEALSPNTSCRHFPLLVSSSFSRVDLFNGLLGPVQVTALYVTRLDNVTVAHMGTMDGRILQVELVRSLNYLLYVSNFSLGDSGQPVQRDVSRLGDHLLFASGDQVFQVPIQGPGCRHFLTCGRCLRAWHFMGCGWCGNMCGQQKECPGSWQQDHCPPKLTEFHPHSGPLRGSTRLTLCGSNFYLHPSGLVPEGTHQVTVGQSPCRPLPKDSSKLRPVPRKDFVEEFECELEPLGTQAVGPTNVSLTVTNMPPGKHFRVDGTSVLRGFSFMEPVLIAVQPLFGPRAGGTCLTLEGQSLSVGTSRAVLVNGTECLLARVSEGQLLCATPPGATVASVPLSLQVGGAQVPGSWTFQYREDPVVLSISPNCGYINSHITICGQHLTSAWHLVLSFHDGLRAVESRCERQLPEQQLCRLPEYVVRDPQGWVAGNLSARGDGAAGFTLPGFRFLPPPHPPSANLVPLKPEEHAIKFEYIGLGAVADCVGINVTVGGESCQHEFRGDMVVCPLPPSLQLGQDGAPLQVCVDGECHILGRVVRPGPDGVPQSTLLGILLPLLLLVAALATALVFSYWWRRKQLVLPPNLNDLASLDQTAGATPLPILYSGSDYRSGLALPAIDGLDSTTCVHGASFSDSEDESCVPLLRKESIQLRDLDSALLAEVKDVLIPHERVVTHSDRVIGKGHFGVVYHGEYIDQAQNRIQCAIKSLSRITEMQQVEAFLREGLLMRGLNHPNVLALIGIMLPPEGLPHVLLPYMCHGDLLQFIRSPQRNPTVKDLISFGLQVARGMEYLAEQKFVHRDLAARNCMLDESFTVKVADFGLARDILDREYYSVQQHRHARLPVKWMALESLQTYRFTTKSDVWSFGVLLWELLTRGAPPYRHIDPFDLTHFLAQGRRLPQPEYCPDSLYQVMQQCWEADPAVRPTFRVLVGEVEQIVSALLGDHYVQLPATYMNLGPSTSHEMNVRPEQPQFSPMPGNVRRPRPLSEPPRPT

The molecule `CN(C[C@@H]1COCCO1)S(=O)(=O)Nc1ccc2ccc3ncc(-c4cnn(C)c4)cc3c(=O)c2c1` [MK-2461] had a 50% inhibitory concentration (IC50) in [1] of 0.4 nM.
With `CNC(=O)c1cc2c(Oc3ccc(NC(=S)NC(=O)Cc4ccccc4)cc3F)ccnc2cc1OC` [TAS-115], the GI50 at 72 h in [2] was over 10000 nM.
For the molecule `CN1CCN(C2CCN(C(=O)Nc3cc(Oc4ccc(NC(=O)C5(C(=O)Nc6ccc(F)cc6)CC5)c(F)c4)ccn3)CC2)CC1` [GOLVATINIB], the IC50 in the data set with HUVEC [3] was 17 nM; in data set [4] it was 24 nM; in data set [5] it was 6.2 nM; in data set [6], 16 nM; in the data set with HUVEC [7] it was 84 nM; in the data set with HUVEC [8], over 1000 nM. Besides, the IC50 in data set [9] worked out at 23 nM; in data set [10] it was 37 nM.
Turning to `COc1cc2c(Oc3ccc(NC(=O)C4(C(=O)Nc5ccc(F)cc5)CC4)cc3F)ccnc2cc1OCCCN1CCOCC1` [FORETINIB], the inhibition in vivo at 100 mg/kg in [11] was 87%. The Activity in data set [12] is 31%; in data set [13] it was 62%; in data set [14], 50%; in data set [15], 58%. The inhibition in vivo at 30 mg/kg in [16] is 64%.
Turning to `Nc1nccc(Oc2ccc(NC(=O)c3c[nH]cc(-c4ccc(F)cc4)c3=O)cc2F)c1Cl` [BMS-794833], the half-inhibitory concentration (IC50) in data set [17], in [18] and in data set [19] was under 3 nM each time.
Molecule `O=C1NC(=O)[C@@H](c2cn3c4c(cccc24)CCC3)[C@@H]1c1c[nH]c2ccccc12` [TIVANTINIB] returned a Ki in data set [1] of 355 nM.
For the molecule `Cn1cc(-c2ccc3nnc(C(F)(F)c4ccc5ncccc5c4)n3n2)cn1` [JNJ-38877605], half-maximal inhibition in data set [1] (IC50) was put at 4 nM.
In the case of `CC1=[N+](c2ccccc2)C(=O)C(C(=O)Nc2ccc(Oc3ccc4nc(NC(=O)C5CC5)cn4c3)c(F)c2)C=C1` (stereo not drawn), the IC50 turned out to be 7.7 nM in data set [20] and 5.5 nM in data set [21].

As usually defined, the IC50 is the point on the concentration scale where inhibition reaches its midpoint. Broadly, the GI50 is the concentration that inhibits growth by half. Usually Ki stands for a measure of affinity in units of concentration, obtained from inhibition or displacement.
